# Assays:
# [1] = test system: patients with osteoarthritis; experiment: osteoarthritis patients, oral enteric coated tablets (Example 9); type: in vivo, human; details: diclofenac in the former, ibuprofen in the latter
# Description: Lactoferrin extracted from bovine milk was formed into enteric coated tablets (Production Example 4) and given orally to a person whose right knee and right elbow were affected by osteoarthritis associated with the injuries caused by their falling off a bicycle and a person whose knee joints were affected by osteoarthritis associated with obesity. Lactoferrin was administered at a dose of 150 mg (450 mg per day) 3 times a day after each meal.
# [2] = test system: volunteers affected by frozen shoulder; experiment: frozen shoulder volunteers, oral enteric coated tablets (Example 11); type: in vivo, human
# Description: Three male volunteers […], each of who was affected frozen shoulder and could not raise either one of their hands above the shoulder, took orally the enteric coated tablets of lactoferrin from bovine milk (Production Example 4). […] They took lactoferrin in a daily dose of 450 mg in 3 uniformly divided portions after each meal. […] disappeared and was cured in one volunteer on day 7 after the initial administration and in the other volunteers on day 12 and on day 23 after the same, respectively.
# male Wistar rats [3] = experiment: formalin test, comparison with diclofenac (Example 3); type: in vivo, rat; details: i.p. 30 minutes before formalin
# Description: Male Wistar rats 6 weeks of age were used. The rats in one group were given bovine lactoferrin and those in another group were given a control drug, diclofenac, by intraperitoneal administration 30 minutes before injecting formalin into their foot pads. Their responses to pain are shown in FIG. 5: the phase 1 pain (left) and the phase 2 pain (right).
# Lactoferrin and diclofenac were administered intraperitoneally 30 minutes before formalin injection both in the control group (n=4) and the diclofenac group (n=5). The pain inhibiting effect of diclofenac disappeared about 50 minutes after formalin injection, whereas the pain inhibiting effect of lactoferrin lasted long and even 60 minutes after formalin injection.
# male Wistar rats [4] = experiment: formalin test, intrathecal administration, comparison with morphine (Example 12); type: in vivo; details: 30 minutes before formalin, bLF 0.1 to 100 μg/rat, rhLF 100 μg/rat, morphine 10 μg/rat, FIGS. 15
# Description: Groups consisting of male Wistar rats 6 weeks of age (n=6 to 8) were intrathecally administered 0.1 to 100 μg/rat of bovine lactoferrin (bLF), 100 μg/rat of recombinant human lactoferrin (rhLF) or 10 μg/rat of morphine (Mor) 30 minutes before formalin was injected into their foot pads. The results are shown in FIGS. 15: the number of the foot-lifting times in the phase 1 pain (left graph) and the number of the foot-lifting times in the phase 2 pain (right graph).
Compound,response to earlier treatment [1],response to earlier treatment [2],inhibition of phase 1 pain (male Wistar rats [3]; FIG. 5),inhibition of phase 2 pain (male Wistar rats [3]; FIG. 5),duration of pain inhibiting effect after formalin injection (male Wistar rats [3]; FIGS. 7 and 8),phase 1 pain (number of foot-lifting times) (male Wistar rats [4]),phase 2 pain (number of foot-lifting times) (male Wistar rats [4])
"O=C(O)Cc1ccccc1Nc1c(Cl)cccc1Cl [diclofenac, reference compound]",failed to respond,failed to respond,did not,"inhibited the phase 2 pain, but the degree of inhibition was low compared with that by lactoferrin",about 50 minutes,,
CC(C)Cc1ccc(C(C)C(=O)O)cc1 (centres unmarked) [ibuprofen],failed to respond,,,,,,
"CN1CC[C@]23c4c5ccc(O)c4O[C@H]2[C@@H](O)C=C[C@H]3[C@H]1C5 [morphine, reference compound]",,,,,,inhibits,inhibits

# Source: patent US8399414B2, “Analgesics” (NRL Pharma, Inc., priority 2002, dated 2013)
